Data on eleven molecules can be found in US9028856B2, “Synergistic pesticide compositions” (priority 2008, dated 2015).

A value given as a limit tells only on which side of the number the result lay.

Data set [1] is classed as physicochemical. To be noted: classified from Log P. An excerpt:
As used herein, a “partition coefficient” is defined as the ratio of concentrations of an un-ionized compound between solutions of water and octanol. To measure the partition coefficient of ionizable solutes, the pH of the aqueous phase is adjusted such that the predominant form of the compound is un-ionized. The logarithm of the ratio of the concentrations of the un-ionized solute in the solvents is referred to herein as log P or log K ow.
As noted herein, the octanol-water partition coefficient may be used to identify the cuticular penetration of a particular active ingredient. One factor in the relative speed through which any insecticide acts is the insecticide's ability to cross the insect cuticle. A determining factor for cuticle penetration is Log K ow, also known as Log P. Log K ow (Log P) is the octanol-water partition coefficient for a neutral molecule. Log P is used hereinfurther, but, as noted above, the term is synonymous with Log K ow. As previously noted, the cuticular penetration of any particular active ingredient as against a plant cuticle is not indicative of that same active ingredient's ability to penetrate an insect cuticle.
The cuticular penetration of a compound is classified as “INTERMEDIATE” when the Log P value is between about 2.0 and about 4.0.

The conditions of data set [2]: octanol-water partition coefficient (Log K ow), Table 1; cited from earlier work.
In data set [3] the test system is tropical house mosquito Culex quinquefasciatus (adults, 3 days old). As to the kind of experiment: Efficacy of formulations on surfaces (glazed/unglazed tiles, plywood), ten 3 day old mosquitoes, 3 min exposure. The note with it: 0.002% = 1 mg DTM/m^2 on glazed tiles; EC formulation; 3 minutes exposure. Type of data set: in vivo. How it is done:
The ingredients were diluted in acetone to give a concentration which corresponds to the desired quantity of a.i./m^2. A 1 ml quantity of the solution was applied by pipette onto the 15 cm×15 cm surfaces without treating the outer edge of 1 cm.
Ten 3 day old Culex quinquefasciatus mosquitoes were exposed to each treatment for 3 minutes under a perforated petri dish, and then a clean untreated white paper index card was moved between treated surface and petri dish. A water-soaked cotton pad was applied immediately after.
Each test consisted of three replicates (three batches of ten mosquitoes were exposed for three minutes to the same surface, each one hour later), of which the mean values are calculated.
The test insects were Culex quinquefasciatus (adults, 3 days old). The compositions were evaluated for their ability to provide effective knock down after 3, 9, 15, and 30 minutes, 1, 2, 3, 4 and 24 hours (mortality). The experiments were performed in triplicate on glazed tile, but not repeated on wood.
Test Insects are Culex quinquefasciatus (adults, 3 days old). The Application provides the technical compounds were dissolved in acetone and applied as 1 ml solutions onto glazed tiles (15 cm×15 cm). An evaluation is provided at knock down after 3, 9, 15, and 30 minutes, 1, 2, 3, 4 and 24 hours (mortality). There are 3 replicates.
Test Insects: Culex quinquefasciatus (adults, 3 days old)
Application: The technical compounds were dissolved in acetone and applied as 1 ml solutions onto glazed tiles (15 cm×15 cm).
Evaluation: Knock down after 3, 9, 15, and 30 minutes, 1, 2, 3, 4 and 24 hours (mortality) […]
Application: The active ingredients were applied as 1 ml acetone solutions onto glazed tiles (15 cm×15 cm) […]
For the mosquitoes, the USDA Petri Dish Method is used. Ten 3 day old Culex quinquefasciatus mosquitoes are exposed to each treatment for 3 minutes under a perforated petri dish and then a clean untreated white paper index card is moved between treated surface and petri dish. A water-soaked cotton pad is applied immediately after. […]

Data set [4] concerns Musca domestica, susceptible strain WHO(N). As to the kind of experiment: Efficacy of formulations on surfaces (glazed/unglazed tiles), house flies, continuous exposure. The class given is in vivo. To be noted: Table 114; 0.002% = 1 mg DTM/m^2 on glazed tiles; EC formulation; continuous exposure. The procedure:
A flat fan nozzle (type SS 8003-E) in a spray cabin was moved automatically over a defined area where the solutions were sprayed very evenly onto the surfaces. The formulation was mixed with water to give a concentration which corresponded to the desired quantity of a.i./m^2. A defined quantity of this solution was sprayed onto the area (nominal 350 liter/ha=0.77 ml per surface).
(§1) All surfaces were provided with talcum-coated glass rings (diameter 9.5 cm, height 5.5 cm) one day later.
The test insects were anesthetized with CO2, 20 individuals were placed onto the treated surfaces and the glass ring was covered with wire gauze ring.
Knock down was determined after 15 and 30′, 1, 2, 4 and 6 hours, mortality after 1 day exposure.
(§2) Each test consisted of at least one replicate and any additional replicates are noted.
(§3) Test Insects: House flies (Musca domestica) of both sexes, susceptible strain WHO(N) and resistant strain Reichswald
(§4) Evaluation: Mortality was evaluated cumulatively at different times. […]
(§5) Test Insects: Culex quinquefasciatus (adults) (3 minutes exposure time according to USDA Petri Dish Method), Musca domestica (adults), susceptible and resistant strain, Blattella germanica (males), Cimex lectularius (adults) (all: continuous exposure time)
(§6) Application: The EC formulation (diluted with water 1:9) were applied as 0.85 ml solutions onto glazed tiles (15 cm×15 cm)
(§7) Evaluation: Knock down after 15, and 30 minutes, 1, 2, 3, 4, 6 and 24 hours (mortality)
(§8) Test Insects: Culex quinquefasciatus (adults, susceptible) (3 minutes exposure time according to USDA Petri Dish Method), Musca domestica (adults, susceptible and resistant), Blattella germanica (males, susceptible) (both: continuous exposure time)
(§9) Formulations: Insecticide with or without 10% Compound A (as EC), to be diluted with water (1 part formulation+9 parts water)
Evaluation: Knock down after 3, 9 (mosquitoes only), 15, and 30 minutes, 1, 2, 3, 4 and 24 hours (mortality) […]

In data set [5] the test system is Musca domestica, resistant strain Reichswald. Described as above. Type of data set: in vivo. To be noted: Table 115; 0.002% = 1 mg DTM/m^2 on glazed tiles; EC formulation; continuous exposure. The procedure: as §1
(§10) The test insects were anesthetized with CO2, 20 individuals were placed onto the treated surfaces and the glass ring was covered with wire gauze ring. […]
as §2, §3, §4, §5, §6

The subject of data set [6] is Blattella germanica (males, susceptible). As to the kind of experiment: Efficacy of EC formulations on glazed/unglazed tiles, continuous exposure. The class given is in vivo. To be noted: 0.002% = 1 mg DTM/m^2 on glazed tiles, EC formulation. How it is done:
as §1, §10
Each test consisted of at least one replicate and any additional replicates are noted. […]
as §8, §9
Application: 1 ml of the diluted formulations was applied by pipette onto glazed tiles (15×15 cm)
(§11) Evaluation: Knock down after 3, 9 (mosquitoes only), 15, and 30 minutes, 1, 2, 3, 4 and 24 hours (mortality)

Data set [7] concerns Cimex lectularius (adults). As to the kind of experiment: Efficacy on glazed tiles (acetone solutions or EC formulations), continuous exposure. The class given is in vivo. The note with it: on tiles, insecticide alone (imidacloprid 50 mg/m^2, Bendiocarb 50 mg/m^2, Ethiprole 10 mg/m^2, DTM 1 mg/m^2), no Compound A. The procedure:
as §5, §6, §7
Test Insects: Culex quinquefasciatus (adults) (3 minutes exposure time according to USDA Petri Dish Method), Cimex lectularius (adults), Acheta domesticus (middle nymphs) (both: continuous exposure time)
Application: The active ingredients were applied as 1 ml acetone solutions onto glazed tiles (15 cm×15 cm)
as §11
Test Insects: Culex quinquefasciatus (adults) (3 minutes exposure time according to USDA Petri Dish Method), Cimex lectularius (adults), (continuous exposure time)
Test Insects: Cimex lectularius, Culex quinquefasciatus, Musca domestica (all adults, susceptible strains)
Application: The active ingredients were applied as 1 ml acetone solutions onto glazed tiles (15 cm×15 cm), continuous exposure time

With `N#Cc1ccc(CC(=NNC(=O)Nc2ccc(OC(F)(F)F)cc2)c2cccc(C(F)(F)F)c2)cc1` (mixture of isomers) [metaflumizone], the “Likelihood of Direct Insect Cuticular Penetration” value (“Likelihood” for short) in data set [1] was “Fast (classified as “FAST” when it has a Log P value of about >4.0)”. For the same molecule, in data set [2], the “Log P” value is recorded as 5.1.
With `Cc1c(COC(=O)[C@@H]2[C@H](/C=C(\Cl)C(F)(F)F)C2(C)C)cccc1-c1ccccc1` (racemic) [bifenthrin], in data set [1], the “Likelihood” value is “Fast (classified as “FAST” when it has a Log P value of about >4.0)”. The “Log P” value in data set [2] was 6.0.
For `COC(C)(C)CCC[C@H](C)C/C=C/C(C)=C/C(=O)OC(C)C` (racemic) [methoprene], in data set [1], the “Likelihood” value is “Fast (classified as “FAST” when it has a Log P value of about >4.0)”. In addition, in data set [2], the “Log P” value is reported as more than 6.0.
For the molecule `CC1(C)[C@H](C(=O)O[C@H](C#N)c2cccc(Oc3ccccc3)c2)[C@@H]1C=C(Br)Br` [DTM], the “% KD and Mortality 15′” value in data set [3] stood at 0%; in data set [4], 10%; in data set [5] it was 0%; in data set [6] it was 0%. Further, the “% KD and Mortality 30′” value is 0% in data set [3], 85% in data set [4], 0% in data set [5] and 40% in data set [6]. For the same molecule, the “% KD and Mortality 1 h” value in data set [3] stood at 10%; in data set [4] it was 95%; in data set [5], 0%; in data set [6], 100%. The “% KD and Mortality 2 h” value was 10% in data set [3], 100% in data set [4], 0% in data set [5] and 100% in data set [6]. The “% KD and Mortality 3 h” value in data set [3] came to 10%; in data set [4], 100%; in data set [5], 0%; in data set [6] it was 100%. Moreover, the “% KD and Mortality 4 h” value in data set [3] came out at 10%; in data set [4], 100%; in data set [5], 0%; in data set [6], 100%. The “% KD and Mortality 6 h” value in data set [3] is 20%; in data set [4], 100%; in data set [5], 0%; in data set [6], 100%. In addition, the “% KD and Mortality 24 h” value in data set [3] was determined as 80%; in data set [4] it was 100%; in data set [5], 5%; in data set [6], 100%. In addition, the “% KD and Mortality” value in data set [7] (15′) worked out at 0%; in data set [7] (30′) it was 0%; in data set [7] (1 h), 0%; in data set [7] (2 h), 10%; in data set [7] (3 h), 80%; in data set [7] (4 h) it was 100%. Further, the “% KD and Mortality” value in data set [7] (6 h) and in data set [7] (24 h) was 100% in each case.
With `C/C(=N\C#N)N(C)Cc1ccc(Cl)nc1` [acetamiprid], in data set [1], the “Likelihood” value was “Slow (classified as “SLOW” when the compound has a Log P value of about <2.0)”. Moreover, the log partition coefficient (Log P) in data set [2] is listed as 0.8.
In the case of `CNC(=O)Oc1cccc2ccccc12` [carbaryl], the “Likelihood” value in data set [1] is “Intermediate (classified as “INTERMEDIATE” when the Log P value is between about 2.0 and about 4.0)”. Moreover, in data set [2], the log partition coefficient (Log P) is 2.8.
In the case of `CN/C(=N\[N+](=O)[O-])NCc1cnc(Cl)s1` [clothianidin], in data set [1], the “Likelihood” value is given as “Slow (classified as “SLOW” when the compound has a Log P value of about <2.0)”. The log partition coefficient (Log P) in data set [2] was 0.7.
For the molecule `CCOC(=O)NCCOc1ccc(Oc2ccccc2)cc1` [fenoxycarb], the “Likelihood” value in data set [1] is “Fast (classified as “FAST” when it has a Log P value of about >4.0)”. For the same molecule, the lipophilicity (Log P) in data set [2] was 4.1.
On to `O=C(NC(=O)c1c(F)cccc1F)Nc1cc(Cl)c(OC(F)(F)C(F)F)c(Cl)c1` [hexaflumuron], for which, in data set [1], the “Likelihood” value is “Fast (classified as “FAST” when it has a Log P value of about >4.0)”. In addition, in data set [2], the lipophilicity (Log P) is on record as 5.6.
On to `CC1(C)CNC(=NN=C(/C=C/c2ccc(C(F)(F)F)cc2)/C=C/c2ccc(C(F)(F)F)cc2)NC1` [hydramethylnon], for which the “Likelihood” value in data set [1] is “Intermediate (classified as “INTERMEDIATE” when the Log P value is between about 2.0 and about 4.0)”. Also, the “Log P” value in data set [2] is recorded as 2.3.
As for `COC(=O)N(C(=O)N1CO[C@@]2(C(=O)OC)Cc3cc(Cl)ccc3C2=N1)c1ccc(OC(F)(F)F)cc1` [indoxacarb], the “Likelihood” value in data set [1] is listed as “Fast (classified as “FAST” when it has a Log P value of about >4.0)”. Besides, the “Log P” value in data set [2] was 4.6.

As a reminder, the Log P is the decadic logarithm of the partition coefficient of the neutral form, usually between octanol and water.
